Here are results for one sequence from patent publication US7582609B2, “Method for the treatment of skin fibrosis and suitable compositions for such treatment” (Digna Biotech, S.L., priority 2006, dated 2009).

This data set relates to bleomycin-induced skin sclerosis. The conditions noted are these: mouse, in vivo. As for the experimental part: Two emulsions or creams were prepared, an emulsion containing peptide P144 and a control emulsion with the vehicle for administration but without P144.
The control emulsion with the vehicle for administration was prepared by a procedure that starts with mixing of the components that are shown below in Table 2:
Next, this mixture was heated at 70° C. and was emulsified with 44.4 g of distilled water (also at 70° C.).
The emulsion containing the P144 was prepared as previously, except that the 44.4 g of water was replaced with a mixture of 44.28 g of water plus 0.010 g of P144 previously dissolved in 100 μl of dimethylsulphoxide.
The test was carried out using 6-week-old female C3H mice, supplied by Harlan SL (Spain). Development of skin sclerosis in the mice was induced by the administration of bleomycin (Sigma, Spain) dissolved in PBS at a concentration of 100 μg/ml and sterilized by filtration. The mice were injected with the bleomycin subcutaneously in the skin of the back, previously shaved, at daily doses of 100 μl of the solution in PBS injected with size 27 needles. […]
The thickness of the dermis was measured on the digitized images of the sections stained with haematoxylin and eosin, and then the percentage variation in thickness of the dermis was calculated relative to the mean of the values obtained for the mice treated with PBS, adjusted to 100%. […]

Ends that are not written are not given here.

For the sequence TSLDASIIWAMMQN [Peptide P144], the “morphological changes in the epidermis” value is “No changes were observed” and the “signs of systemic toxicity” value is “without signs of systemic toxicity”.
